Test [1] deals with T1, GR (Homo sapiens, UniProt P04150).
T1 construct: endogenous in cells; host or cells: A549 (human lung carcinoma, ECACC No. 86012804), stably transfected with reporter plasmids only
T1 sequence (P04150 1-777): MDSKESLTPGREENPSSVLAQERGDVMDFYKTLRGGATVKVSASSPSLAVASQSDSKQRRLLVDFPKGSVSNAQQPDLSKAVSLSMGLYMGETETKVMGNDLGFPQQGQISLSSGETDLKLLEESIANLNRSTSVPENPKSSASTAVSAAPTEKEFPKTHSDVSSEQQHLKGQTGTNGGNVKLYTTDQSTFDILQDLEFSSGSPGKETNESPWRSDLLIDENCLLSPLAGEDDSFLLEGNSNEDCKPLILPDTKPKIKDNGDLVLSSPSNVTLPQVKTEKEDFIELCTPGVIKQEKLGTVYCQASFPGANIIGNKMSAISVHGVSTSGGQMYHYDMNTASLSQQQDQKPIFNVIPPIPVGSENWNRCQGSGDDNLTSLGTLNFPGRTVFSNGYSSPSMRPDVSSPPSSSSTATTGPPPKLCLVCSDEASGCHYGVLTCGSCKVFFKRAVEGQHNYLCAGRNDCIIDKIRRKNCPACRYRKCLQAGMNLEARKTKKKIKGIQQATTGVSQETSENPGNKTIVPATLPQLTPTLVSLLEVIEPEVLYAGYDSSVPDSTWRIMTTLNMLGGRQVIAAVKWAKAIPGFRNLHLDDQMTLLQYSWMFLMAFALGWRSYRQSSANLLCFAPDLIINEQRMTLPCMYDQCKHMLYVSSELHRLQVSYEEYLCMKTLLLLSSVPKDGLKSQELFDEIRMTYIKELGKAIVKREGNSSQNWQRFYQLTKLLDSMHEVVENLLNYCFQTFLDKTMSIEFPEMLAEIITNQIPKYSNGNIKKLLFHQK
In words: GR Functional Assay - NFκB Assay (A549 SPAP cells, TNFα stimulated). The note with it: for Emax: agonists, read-out: average maximum asymptote in the NFkB assay. Format: cell-based. In outline:
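Stably transfected A549 SPAP cells at 0.16×10^6/ml in DMEM with 10% FCS were added to compound and stimulated with TNFα to drive NFκB-dependent SPAP expression. After 1 hr equilibration at room temperature, SPAP was read colorimetrically with pNPP in diethanolamine buffer, pH 9.8.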

Test [2] concerns the target T1, GR. The test is described as follows: GR Agonist Assay - MMTV Assay (A549 MMTV cells, renilla luciferase reporter). The note with it: 6 h, agonists, read-out: average maximum asymptote in the MMTV agonist assay. The class given is cell-based. In short, it runs like this: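 Stably transfected A549 MMTV cells carry a GR-driven luciferase reporter. Cells at 0.1×10^6/ml in DMEM with 10% FCS and 25 mM HEPES were added to wells containing compound. After detection reagent, plates were held about 15 mins at room temperature and luminescence was read.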

Where [3] appears, read: at least once in the NFkB assay, A549 SPAP cells, read-out: pIC50 in the NFkB assay (converted).
[4] abbreviates: at least once, examples listed as agonists in NFkB and MMTV assays, read-out: potency pIC50 in the NFKB assay (converted).

Where two headings read alike, the source gives them in different places.

In the case of `Nc1c(C(=O)NCC(O)(CN(CCF)C(=O)c2ccccc2)C(F)(F)F)cnn1-c1ccc(F)cc1` (racemic) [Example 1 (racemic), 5-Amino-1-(4-fluorophenyl)-N-(3,3,3-trifluoro-2-{[(2-fluoroethyl)(phenylcarbonyl)amino]methyl}-2-hydroxypropyl)-1H-pyrazole-4-carboxamide], the Emax in test [1] (A549 SPAP cells) and in test [2] was at least 40% throughout. For the same compound, the figures for the IC50 in test [1] (setting [3]) and in test [1] (setting [4]) were under 1000 nM and under 316 nM, respectively.

For `Nc1c(C(=O)NCC(O)(CN(CCF)C(=O)c2ccccc2F)C(F)(F)F)cnn1-c1ccc(F)cc1` (racemic) [Example 2 (racemic), 5-Amino-1-(4-fluorophenyl)-N-[3,3,3-trifluoro-2-([(2-fluoroethyl)[(2-fluorophenyl)carbonyl]amino]methyl)-2-hydroxypropyl]-1H-pyrazole-4-carboxamide], the Emax in test [1] (A549 SPAP cells) and in test [2] was at least 40% throughout. In addition, the IC50 in test [1] (setting [3]) was under 1000 nM; in test [1] (setting [4]), under 316 nM.

As for `CCN(CC(O)(CNC(=O)c1cnn(-c2ccc(F)cc2)c1N)C(F)(F)F)C(=O)c1cccc(F)c1F` (racemic) [Example 5 (racemic), 5-Amino-N-(2-{[[(2,3-difluorophenyl)carbonyl](ethyl)amino]methyl}-3,3,3-trifluoro-2-hydroxypropyl)-1-(4-fluorophenyl)-1H-pyrazole-4-carboxamide], the Emax in test [1] (A549 SPAP cells) and in test [2] was at least 40% each time. Also, the IC50 was under 1000 nM in test [1] (setting [3]) and under 316 nM in test [1] (setting [4]).

Values taken from patent US20100035926A1, “PYRAZOLE DERIVATIVES AS NON-STEROIDAL GLUCOCORTICOID RECEPTOR LIGANDS” (priority 2006, published 2010).
